Laboratory results as given in patent US11179358B2, “Compound for use in the prevention and treatment of neurodegenerative diseases” (Universität Wien, priority 2015, dated 2021).
Entries after “also recorded” stand apart in the source; their conditions may differ.

Experiments:
[1] = molecular target: Lcn2 (Homo sapiens, UniProt P80188); experiment: Isothermal titration calorimetry of Sulfocalixarene binding to Lcn2; details: ITC, 25° C., 20 mM Tris pH 7.4, 50 mM NaCl, single binding site
Procedure: Isothermal Titration Calorimetry (ITC)—Binding of free and bound Sulfocalixarene to Lcn2 was determined by ITC using a Microcal ITC200 microcalorimeter. Experiments were carried out at 25° C. in 20 mM Tris pH 7.4, 50 mM NaCl. The reference cell contained Milli Q water. The concentration of Lcn2 in the reaction cell was 50 μM. The concentration of Sulfocalixarene in the syringe was 500 μM. The titration consisted in 19 successive injections of 4 μL, with a stirring speed of 800 rpm, separated by intervals of 300 s. Data analysis was done with the Origin software assuming a single binding site.
FIG. 7 illustrates a biophysical characterization of the Sulfocalixarene binding to soluble Lcn2. (top). Overlay of ^1H-^15N HSQC spectra for Lcn2 without (red) and with Sulfocalixarene (blue). Changes of cross peak frequencies (positions) indicate residues which are affected upon binding. (bottom) Isothermal titration calorimetry traces of Sulfocalixarene binding to Lcn2. Sulfocalixarene binds to Lcn2 with a KD of about 700 nM.

[2] = molecular target: α-synuclein (Homo sapiens, UniProt P37840); experiment: NMR probing of interaction between α-synuclein and Sulfocalixarene, with and without POPG liposomes; format: binding
Procedure: POPG was ordered from Avantis Polar Lipids as a stock of 5 mg/ml dissolved in chloroform. The stock solution was aliquotted in glass vials, most chloroform was evaporated under nitrogen flow and the sample was then dried under vacuum for a minimum of 45 min. POPG was dissolved in the desired buffer to 1 mg/ml, kept at RT for 1 hr and subjected to 3 freeze-thaw cycles for complete solvation. The suspension was sonicated in a bath sonicator for 5 min and cycled through an extruder (Avanti® mini-Extruder) equipped with a 0.4 μm membrane for 20 times.
To allow for high concentration measurements, the resulting solution was centrifuged at 200,000×g for 10 min, 75% of the supernatant were discarded and the pellet was resuspended in the remaining 25% yielding a solution of 4 mg/ml POPG. This solution was frozen in aliquots before being used in further measurements. […]
For all NMR-measurements the protein was dialyzed into 20 mM phosphate, pH=7.4, 100 mM NaCl. […] NMR-Spectra were recorded on Varian Direct Drive 600 MHz and Varian Inova 800 MHz spectrometers with 10% D2O as lock solvent. […] Resonance assignment at near physiological conditions was readily available from a previous publication (J. N. Rao, Y. E. Kim, L. S. Park, T. S. Ulmer, Effect of pseudorepeat rearrangement on alpha-synuclein misfolding, vesicle binding, and micelle binding. J Mol Biol 390, 516-529 (2009)) (BMRB ID 16300). […]

[3] = test system: transgenic animal models for Parkinson Disease (PD); experiment: Immunostaining of cortex in transgenic animal models for Parkinson Disease and healthy controls; format: in vivo, mice
Text: FIG. 3: Quantification of the neuronal-immunostaining experiments. Total area, average size and % area are different computational strategies to quantify the number of neurons (however, leading to the same results).
FIG. 4: Immunostaining of astrocytes in healthy (control) and transgenic animals (PD). […] The numbers given for the transgenic animal models are average numbers (and standard deviation) of astrocytes obtained for different animals and cortex regions.
FIG. 6: Quantification of α-synuclein aggregates.

[4] = test system: RA/PMA differentiated SH-SY5Y cells; experiment: Sulfocalixarene protection against Lcn2/NGAL cytotoxicity; format: cell-based; details: human differentiated SH-SY5Y neuroblastoma cells
Procedure: (§1) FIG. 11: Sulfocalixarene protection against Lcn2/NGAL cytotoxicity. A. SH-SY5Y RA/PMA differentiated cells were treated for 24 and 48 hours with two lethal concentrations of Lcn2/NGAL (100 μg/ml and 200 μg/ml). Cells were challenged with increasing concentration of Sulfocalixarene and assessed for MTT and phase contrast microscopy analyses. B. SH-SY5Y RA/PMA differentiated cells were treated for 24 and 48 hours with two lethal concentrations of MPP+ (0.5 mM and 10 mM). Cells were challenged with increasing concentration of Sulfocalixarene and assessed for MTT and phase contrast microscopy analyses.
To further study the effect of the compound in neuronal cellular cultures, a cytotoxicity assay was developed using the human Neuroblastoma SH-SY5Y cell line as an in vitro model for dopaminergic neurons. First, it was shown that RA-PMA terminally differentiated SH-SY5Y cells are sensitive to Lcn2/NGAL cytotoxicity in a dose dependent manner. Moreover, in the presence of reactive oxygen species (ROS) triggered by H2O2 the Lcn2/NGAL cytotoxicity is stronger. Second, it could be shown that SH-SY5Y terminally differentiated cells express ˜5× more the Lcn2/NGAL cognate receptor (SLC22A17) on the plasma membrane.

[5] = test system: RA/PMA differentiated SH-SY5Y cells; experiment: Sulfocalixarene protection against MPP+ and H2O2 cytotoxicity; format: cell-based, human; details: Sulfocalixarene 500 μM and 100 μM
Procedure: as §1
FIG. 12: Sulfocalixarene protection against MPP+ and H2O2 cytotoxicity. Representative phase-contrast microscope images of RA/PMA differentiated SH-SY5Y cells, scale bar 100 μm.
Furthermore, it was shown that Sulfocalixarene protected against MPP+ (a substrate for the dopamine transporter that is taken up selectively into dopaminergic neurons where it inhibits Complex I of the mitochondrial electron transport chain) and H2O2 stress in human differentiated SH-SY5Y cells. Oxidative stress and mitochondrial damage have been implicated in the pathogenesis of several neurodegenerative diseases.

[6] = test system: transgenic (tg) animals Line 61; experiment: Pasta Gnawing Test; format: in vivo, mice
Procedure: FIG. 13: Pasta Gnawing. The Pasta Gnawing Test is a stress-free behavioral experiment for evaluation of motor deficits in rodents. During the test, the gnawing noises of the animals while eating a piece of dry pasta are recorded. Parameters such as biting speed and number of bites/chewing episode are evaluated.
Data are shown as mean±SEM. Statistics 1-Way-Anova. Statistically significant group differences are indicated with asterisks (for One Way Anova) and hashtag (for t-test); *p<0.05; **p<0.01; #p<0.05.

Lcn2, sequence (P80188 21-198): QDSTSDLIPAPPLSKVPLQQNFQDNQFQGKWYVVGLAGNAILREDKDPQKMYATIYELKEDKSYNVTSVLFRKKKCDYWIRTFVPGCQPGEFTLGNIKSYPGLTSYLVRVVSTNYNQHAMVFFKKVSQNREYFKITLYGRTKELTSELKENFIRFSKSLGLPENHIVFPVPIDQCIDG

What does the source list for `O=S(=O)(O)c1cc2c(O)c(c1)Cc1cc(S(=O)(=O)O)cc(c1O)Cc1cc(S(=O)(=O)O)cc(c1O)Cc1cc(S(=O)(=O)O)cc(c1O)C2` [Sulfocalixarene, 4-sulfocalix[4]arene]?
Kd [1]: ~700 nM; location of binding site on α-synuclein (NMR chemical shift changes) ([2]; monomeric (soluble) α-Synuclein): N-terminal domain of α-synuclein; also recorded: N-terminal part of α-Synuclein; also recorded: N-terminal domain (1-40); release of α-syn from POPG liposomes (NMR signal intensity ratio) ([2]; α-syn (120 µM) with POPG-liposomes (0.8 mg/ml)): partly releases α-syn from the liposomes; number of astrocytes ([3]; healthy control animals): unaffected; number of neurons in the cortex ([3]; transgenic animal models for PD): increase of the number of neurons in the cortex; pathological α-synuclein aggregates ([3]; transgenic animals (PD)): reduction of pathological α-synuclein aggregates; also recorded: significant reduction of α-synuclein aggregates; number of astrocytes ([3]; transgenic animals (PD), cortex): increase of the number of (presumably neurotrophic quiescent) astrocytes; neuroprotection against Lcn2/NGAL cytotoxicity [4]: has neuroprotection properties against the cytotoxic protein Lcn2/NGAL; cell viability reduction induced by H2O2 [5]: attenuates the reduction of cell viability; cell viability reduction induced by MPP+ [5]: attenuates the reduction of cell viability; bites per episode ([6]; day 28, tg Line 61, versus tg animals treated with vehicle): significant more bites per episode; biting speed ([6]; tg Line 61, versus tg animals treated with vehicle): more biting speed
